Literature values as cited in paper doi:10.1101/2025.09.24.678446, “Exploiting Peptide Chirality and Transport to Dissect the Complex Mechanism of Action of Host Peptides on Bacteria” (bioRxiv, 2025).

Tested on: BacA

## bleomycin
  transport by BacA: BacA has previously been shown to transport many varieties of peptides, including bleomycin
